In ChEMBL document CHEMBL3885861, “Open TG-GATES”:

Species on record: Rattus norvegicus
Experiment: Open TG-GATES - Regimen: Single
Type: toxicity, organism-based, Sprague-Dawley
Design: regimen Single, gender Male, age 6 weeks
Conditions: in vivo, po, 60 mg/kg, route gavage, dose level High; for APTT / Bas / Eos / Fbg / Hb / Ht / Lym / MCH / MCHC / MCV / Mono / Neu / PT / Plat / RBC / Ret / WBC: tissue Blood; for KIDNEY_L / KIDNEY_R / KIDNEY_TOTAL: tissue Kidney; for LIVER: tissue Liver; for A/G / ALP / ALT / AST / BUN / CRE / Ca / Cl / DBIL / GLC / IP / K / LDH / Na / PL / RALB / TBIL / TC / TG / TP / gamma-GTP: tissue Plasma

CC(C)NNC(=O)c1ccncc1 [IPRONIAZID]
TERMINAL_BW (3 h): 204.9 g
APTT (3 h): 22.1 s
Bas (3 h): 0%
Eos (3 h): 1%
Fbg (3 h): 294 mg/dL
Hb (3 h): 12.7 g/dL
Ht (3 h): 37%
Lym (3 h): 74.8%
MCH (3 h): 20.9 pg
MCHC (3 h): 34.2%
MCV (3 h): 61 fL
Mono (3 h): 2%
Neu (3 h): 21.8%
PT (3 h): 16.2 s
Plat (3 h): 124.5 x10_4/uL
RBC (3 h): 608.8 x10_4/ul
Ret (3 h): 7.9%
WBC (3 h): 90.6 x10_2/uL
KIDNEY_L (3 h): 1 g
KIDNEY_R (3 h): 1 g
KIDNEY_TOTAL (3 h): 1.9 g
LIVER (3 h): 8.8 g
A/G (3 h): 1.3
ALP (3 h): 1312.5 IU/L
ALT (3 h): 35 IU/L
AST (3 h): 72.2 IU/L
BUN (3 h): 12 mg/dL
CRE (3 h): 0.2 mg/dL
Ca (3 h): 10.5 mg/dL
Cl (3 h): 105.8 meq/L
DBIL (3 h): 0 mg/dL
GLC (3 h): 180.5 mg/dL
IP (3 h): 9.8 mg/dL
K (3 h): 4 meq/L
LDH (3 h): 221.5 IU/L
Na (3 h): 141.2 meq/L
PL (3 h): 136 mg/dL
RALB (3 h): 2.9 g/dL
TBIL (3 h): 0 mg/dL
TC (3 h): 78 mg/dL
TG (3 h): 34.8 mg/dL
TP (3 h): 5.2 g/dL
gamma-GTP (3 h): 1 IU/L
TERMINAL_BW (6 h): 212.4 g
APTT (6 h): 21.7 s
Bas (6 h): 0%
Eos (6 h): 0.8%
Fbg (6 h): 325.8 mg/dL
Hb (6 h): 13 g/dL
Ht (6 h): 38%
Lym (6 h): 72.2%
MCH (6 h): 21 pg
MCHC (6 h): 34.3%
MCV (6 h): 61.4 fL
Mono (6 h): 2%
Neu (6 h): 23.8%
PT (6 h): 15.6 s
Plat (6 h): 125.7 x10_4/uL
RBC (6 h): 619.8 x10_4/ul
Ret (6 h): 8%
WBC (6 h): 79.9 x10_2/uL
KIDNEY_L (6 h): 0.9 g
KIDNEY_R (6 h): 0.9 g
KIDNEY_TOTAL (6 h): 1.8 g
LIVER (6 h): 9.2 g
A/G (6 h): 1.3
ALP (6 h): 1181.8 IU/L
ALT (6 h): 35 IU/L
AST (6 h): 75.4 IU/L
BUN (6 h): 8.8 mg/dL
CRE (6 h): 0.1 mg/dL
Ca (6 h): 10.8 mg/dL
Cl (6 h): 106.8 meq/L
DBIL (6 h): 0.002 mg/dL
GLC (6 h): 180 mg/dL
IP (6 h): 9.9 mg/dL
K (6 h): 4.1 meq/L
LDH (6 h): 237.8 IU/L
Na (6 h): 142 meq/L
PL (6 h): 159.2 mg/dL
RALB (6 h): 3 g/dL
TBIL (6 h): 0.002 mg/dL
TC (6 h): 93.6 mg/dL
TG (6 h): 44.6 mg/dL
TP (6 h): 5.5 g/dL
gamma-GTP (6 h): 1.4 IU/L
TERMINAL_BW (9 h): 196.4 g
APTT (9 h): 22.5 s
Bas (9 h): 0%
Eos (9 h): 1%
Fbg (9 h): 320.6 mg/dL
Hb (9 h): 13 g/dL
Ht (9 h): 37.9%
Lym (9 h): 76%
MCH (9 h): 20 pg
MCHC (9 h): 34.3%
MCV (9 h): 58.3 fL
Mono (9 h): 1.4%
Neu (9 h): 21%
PT (9 h): 15.9 s
Plat (9 h): 121.4 x10_4/uL
RBC (9 h): 650.4 x10_4/ul
Ret (9 h): 6.3%
WBC (9 h): 55.2 x10_2/uL
KIDNEY_L (9 h): 0.9 g
KIDNEY_R (9 h): 0.9 g
KIDNEY_TOTAL (9 h): 1.8 g
LIVER (9 h): 8 g
A/G (9 h): 1.2
ALP (9 h): 1174.6 IU/L
ALT (9 h): 27.2 IU/L
AST (9 h): 65 IU/L
BUN (9 h): 7.6 mg/dL
CRE (9 h): 0.2 mg/dL
Ca (9 h): 10.4 mg/dL
Cl (9 h): 107 meq/L
DBIL (9 h): 0.006 mg/dL
GLC (9 h): 184.6 mg/dL
IP (9 h): 9.4 mg/dL
K (9 h): 4 meq/L
LDH (9 h): 176.2 IU/L
Na (9 h): 142.2 meq/L
PL (9 h): 139.6 mg/dL
RALB (9 h): 3.1 g/dL
TBIL (9 h): 0.004 mg/dL
TC (9 h): 84.4 mg/dL
TG (9 h): 30.4 mg/dL
TP (9 h): 5.6 g/dL
gamma-GTP (9 h): 1 IU/L
TERMINAL_BW (24 h): 208.5 g
APTT (24 h): 21.7 s
Bas (24 h): 0%
Eos (24 h): 1%
Fbg (24 h): 336.8 mg/dL
Hb (24 h): 13.6 g/dL
Ht (24 h): 39.4%
Lym (24 h): 80.6%
MCH (24 h): 21.3 pg
MCHC (24 h): 34.5%
MCV (24 h): 61.8 fL
Mono (24 h): 2.4%
Neu (24 h): 14.8%
PT (24 h): 15.4 s
Plat (24 h): 119.6 x10_4/uL
RBC (24 h): 637.4 x10_4/ul
Ret (24 h): 7.5%
WBC (24 h): 66.9 x10_2/uL
KIDNEY_L (24 h): 0.9 g
KIDNEY_R (24 h): 1 g
KIDNEY_TOTAL (24 h): 1.9 g
LIVER (24 h): 9.2 g
A/G (24 h): 1.3
ALP (24 h): 1223.4 IU/L
ALT (24 h): 37 IU/L
AST (24 h): 74.4 IU/L
BUN (24 h): 14 mg/dL
CRE (24 h): 0.2 mg/dL
Ca (24 h): 10.6 mg/dL
Cl (24 h): 107 meq/L
DBIL (24 h): 0.002 mg/dL
GLC (24 h): 187.6 mg/dL
IP (24 h): 7.8 mg/dL
K (24 h): 4.1 meq/L
LDH (24 h): 240.4 IU/L
Na (24 h): 142.6 meq/L
PL (24 h): 148.6 mg/dL
RALB (24 h): 3.1 g/dL
TBIL (24 h): 0.02 mg/dL
TC (24 h): 91 mg/dL
TG (24 h): 60.6 mg/dL
TP (24 h): 5.6 g/dL
gamma-GTP (24 h): 1.6 IU/L
